In ChEMBL document CHEMBL1122192, “Nitro and amino derivatives of lucanthone as antitumor agents” (1982):

Columns and labels:
[1] = system: P388; assay: In vivo antitumor activity against P-388 lymphocytic leukemia at the dose of 50 mg/kg; assay type: functional, Mus musculus
[2] = system: P388; assay: In vivo antitumor activity against P-388 lymphocytic leukemia at the dose of 200 mg/kg; Toxic; assay type: functional, organism-based; design: dose 200 mg/kg; conditions: Mus musculus
[3] = system: P388; assay: In vivo antitumor activity against P-388 lymphocytic leukemia at the dose of 100 mg/kg; assay type: functional, Mus musculus
[4] = system: P388; assay: In vivo antitumor activity against P-388 lymphocytic leukemia at the dose of 200 mg/kg; assay type: functional, Mus musculus
[5] = system: P388; assay: In vivo antitumor activity against P-388 lymphocytic leukemia at the dose of 25 mg/kg; assay type: functional, Mus musculus
[6] = system: P388; assay: In vivo antitumor activity against P-388 lymphocytic leukemia at the dose of 12.5 mg/kg; assay type: functional, Mus musculus

CN(C)CCNc1ccc(N)c2sc3ccccc3c(=O)c12
T/C [1]: 100
T/C [2]: Toxic
T/C [3]: 121

CCN(CC)CCNc1ccc(N)c2sc3ccccc3c(=O)c12
T/C [1]: 107
T/C [3]: 122
T/C [4]: 125

CCN(CC)CCNc1ccc(C)c2sc3c(N)cccc3c(=O)c12
T/C [1]: 100
T/C [3]: 113
T/C [4]: 123

CCN(CC)CCNc1ccc([N+](=O)[O-])c2sc3ccccc3c(=O)c12
T/C [1]: 142
T/C [3]: 145
T/C [4]: 178

O=c1c2ccccc2sc2c([N+](=O)[O-])ccc(NCCNCCO)c12
T/C [1]: 120
T/C [5]: 141
T/C [6]: 133

Nc1ccc(NCCNCCO)c2c(=O)c3ccccc3sc12
T/C [1]: 132

CN(C)CCNc1ccc([N+](=O)[O-])c2sc3ccccc3c(=O)c12
T/C [1]: 143
T/C [5]: 135
T/C [6]: 114
T/C [3]: 103

CCN(CC)CCNc1ccc(C)c2sc3ccc(N)cc3c(=O)c12
T/C [1]: 138
T/C [5]: 103
T/C [6]: 120
